Results reported in the NIST ThermoML archive (doi:10.1021/je800889y).
± gives the expanded uncertainty stated by the source.

Assay: excess molar enthalpy (molar enthalpy of mixing); xn = mol fraction of the nth substance listed
Details: 101.3 kPa, Liquid, Flow calorimetry

CCOC(=O)CC(C)=O [ethyl 3-oxobutanoate] + CCOC(C)=O
excess molar enthalpy [kJ/mol]
Details | 298.15 K | 313.15 K | 328.15 K | 338.15 K | 348.15 K
x1 = 0.1005 | 0.025 ± 0.001 | 0.025 ± 0.001 | 0.021 ± 0.001 | 0.019 ± 0.001 | 0.017 ± 0.001
x1 = 0.1995 | 0.041 ± 0.001 | 0.042 ± 0.001 | 0.035 ± 0.001 | 0.033 ± 0.001 | 0.029 ± 0.001
x1 = 0.2996 | 0.052 ± 0.002 | 0.053 ± 0.002 | 0.044 ± 0.001 | 0.041 ± 0.001 | 0.036 ± 0.001
x1 = 0.3495 | 0.054 ± 0.002 | 0.057 ± 0.002 | 0.047 ± 0.002 | 0.044 ± 0.001 | 0.039 ± 0.001
x1 = 0.3995 | 0.056 ± 0.002 | 0.059 ± 0.002 | 0.048 ± 0.002 | 0.046 ± 0.001 | 0.041 ± 0.001
x1 = 0.4496 | 0.057 ± 0.002 | 0.061 ± 0.002 | 0.049 ± 0.002 | 0.047 ± 0.002 | 0.042 ± 0.001
x1 = 0.4998 | 0.056 ± 0.002 | 0.061 ± 0.002 | 0.048 ± 0.002 | 0.046 ± 0.001 | 0.042 ± 0.001
x1 = 0.55 | 0.055 ± 0.002 | 0.06 ± 0.002 | 0.047 ± 0.002 | 0.045 ± 0.001 | 0.041 ± 0.001
x1 = 0.6001 | 0.052 ± 0.002 | 0.058 ± 0.002 | 0.044 ± 0.001 | 0.043 ± 0.001 | 0.039 ± 0.001
x1 = 0.6502 | 0.049 ± 0.002 | 0.056 ± 0.002 | 0.041 ± 0.001 | 0.041 ± 0.001 | 0.038 ± 0.001
x1 = 0.7001 | 0.046 ± 0.001 | 0.052 ± 0.002 | 0.037 ± 0.001 | 0.037 ± 0.001 | 0.035 ± 0.001
x1 = 0.7994 | 0.035 ± 0.001 | 0.042 ± 0.001 | 0.027 ± 0.001 | 0.029 ± 0.001 | 0.027 ± 0.001
x1 = 0.9004 | 0.019 ± 0.001 | 0.028 ± 0.001 | 0.018 ± 0.001 | 0.017 ± 0.001 | 0.017 ± 0.001

CCOC(=O)CC(C)=O [ethyl 3-oxobutanoate] + CCCCCO
excess molar enthalpy [kJ/mol]
Details | 298.15 K | 313.15 K | 328.15 K | 338.15 K | 348.15 K
x1 = 0.0998 | 0.913 ± 0.02 | 1.05 ± 0.023 | 1.12 ± 0.025 | 1.18 ± 0.026 | 1.18 ± 0.026
x1 = 0.1996 | 1.38 ± 0.03 | 1.67 ± 0.036 | 1.85 ± 0.04 | 1.92 ± 0.042 | 1.93 ± 0.042
x1 = 0.3006 | 1.71 ± 0.037 | 2.05 ± 0.044 | 2.3 ± 0.049 | 2.39 ± 0.051 | 2.39 ± 0.051
x1 = 0.3505 | 1.81 ± 0.039 | 2.18 ± 0.047 | 2.46 ± 0.052 | 2.54 ± 0.054 | 2.54 ± 0.054
x1 = 0.4001 | 1.88 ± 0.04 | 2.27 ± 0.049 | 2.54 ± 0.054 | 2.63 ± 0.056 | 2.64 ± 0.056
x1 = 0.4504 | 1.93 ± 0.041 | 2.32 ± 0.05 | 2.6 ± 0.055 | 2.68 ± 0.057 | 2.69 ± 0.057
x1 = 0.5003 | 1.95 ± 0.042 | 2.33 ± 0.05 | 2.6 ± 0.056 | 2.68 ± 0.057 | 2.69 ± 0.057
x1 = 0.5498 | 1.94 ± 0.042 | 2.31 ± 0.049 | 2.56 ± 0.055 | 2.63 ± 0.056 | 2.64 ± 0.056
x1 = 0.6 | 1.9 ± 0.041 | 2.26 ± 0.048 | 2.49 ± 0.053 | 2.54 ± 0.054 | 2.55 ± 0.054
x1 = 0.6497 | 1.84 ± 0.04 | 2.16 ± 0.046 | 2.35 ± 0.05 | 2.4 ± 0.051 | 2.4 ± 0.051
x1 = 0.7002 | 1.74 ± 0.038 | 2.02 ± 0.043 | 2.18 ± 0.047 | 2.2 ± 0.047 | 2.21 ± 0.047
x1 = 0.7995 | 1.43 ± 0.031 | 1.59 ± 0.035 | 1.67 ± 0.036 | 1.67 ± 0.036 | 1.67 ± 0.036
x1 = 0.9004 | 0.851 ± 0.019 | 0.898 ± 0.021 | 0.928 ± 0.021 | 0.93 ± 0.021 | 0.933 ± 0.021

CCOC(=O)CC(C)=O [ethyl 3-oxobutanoate] + O
excess molar enthalpy [kJ/mol]
Details | 298.15 K | 313.15 K | 328.15 K | 338.15 K | 348.15 K
x1 = 0.1502 | 0.175 ± 0.005 | 0.276 ± 0.007 | 0.386 ± 0.009 | 0.472 ± 0.011 | 0.558 ± 0.013
x1 = 0.2994 | 0.428 ± 0.01 | 0.597 ± 0.013 | 0.783 ± 0.017 | 0.929 ± 0.02 | 1.09 ± 0.024
x1 = 0.4491 | 0.684 ± 0.015 | 0.92 ± 0.02 | 1.19 ± 0.026 | 1.4 ± 0.03 | 1.62 ± 0.035
x1 = 0.6014 | 0.923 ± 0.02 | 1.23 ± 0.027 | 1.57 ± 0.034 | 1.82 ± 0.039 | 1.93 ± 0.041
x1 = 0.6499 | – | – | – | 1.79 ± 0.038 | 1.89 ± 0.04
x1 = 0.7001 | 1.08 ± 0.024 | 1.4 ± 0.03 | 1.58 ± 0.034 | 1.7 ± 0.036 | 1.79 ± 0.038
x1 = 0.7514 | 1.13 ± 0.024 | 1.32 ± 0.028 | 1.47 ± 0.032 | 1.56 ± 0.034 | 1.61 ± 0.035
x1 = 0.797 | – | – | – | 1.38 ± 0.03 | 1.41 ± 0.031
x1 = 0.8474 | 0.87 ± 0.019 | 0.998 ± 0.022 | 1.07 ± 0.024 | – | –
x1 = 0.9034 | 0.6 ± 0.014 | 0.696 ± 0.016 | 0.736 ± 0.017 | 0.778 ± 0.018 | 0.786 ± 0.018
x1 = 0.9496 | 0.32 ± 0.009 | 0.385 ± 0.011 | 0.39 ± 0.011 | – | –

CCOC(=O)CC(C)=O [ethyl 3-oxobutanoate] + CCC(C)O
excess molar enthalpy [kJ/mol]
Details | 298.15 K | 313.15 K | 328.15 K | 338.15 K | 348.15 K
x1 = 0.1002 | 0.98 ± 0.022 | 1.13 ± 0.025 | 1.2 ± 0.027 | 1.23 ± 0.027 | 1.23 ± 0.027
x1 = 0.1997 | – | 1.76 ± 0.038 | 1.94 ± 0.042 | 1.97 ± 0.043 | 1.98 ± 0.043
x1 = 0.2008 | 1.52 ± 0.033 | – | – | – | –
x1 = 0.2998 | – | 2.16 ± 0.046 | 2.38 ± 0.051 | 2.44 ± 0.052 | 2.44 ± 0.052
x1 = 0.3009 | 1.84 ± 0.04 | – | – | – | –
x1 = 0.3999 | – | 2.38 ± 0.051 | 2.61 ± 0.056 | 2.67 ± 0.057 | 2.67 ± 0.057
x1 = 0.4011 | 2.02 ± 0.043 | – | – | – | –
x1 = 0.45 | – | 2.44 ± 0.052 | 2.64 ± 0.056 | 2.7 ± 0.058 | 2.71 ± 0.058
x1 = 0.4512 | 2.06 ± 0.044 | – | – | – | –
x1 = 0.5004 | – | 2.44 ± 0.052 | 2.63 ± 0.056 | 2.68 ± 0.057 | 2.69 ± 0.057
x1 = 0.5017 | 2.08 ± 0.045 | – | – | – | –
x1 = 0.5499 | – | 2.41 ± 0.051 | 2.58 ± 0.055 | 2.61 ± 0.056 | 2.62 ± 0.056
x1 = 0.5512 | 2.06 ± 0.044 | – | – | – | –
x1 = 0.5995 | – | 2.32 ± 0.05 | 2.48 ± 0.053 | 2.5 ± 0.053 | 2.51 ± 0.054
x1 = 0.6009 | 2.01 ± 0.043 | – | – | – | –
x1 = 0.6493 | – | 2.21 ± 0.047 | 2.33 ± 0.05 | 2.33 ± 0.05 | 2.34 ± 0.05
x1 = 0.6507 | 1.93 ± 0.041 | – | – | – | –
x1 = 0.7007 | 1.8 ± 0.039 | 2.03 ± 0.044 | 2.12 ± 0.045 | 2.12 ± 0.046 | 2.12 ± 0.046
x1 = 0.8005 | 1.42 ± 0.031 | 1.55 ± 0.034 | 1.59 ± 0.035 | 1.59 ± 0.035 | 1.6 ± 0.035
x1 = 0.8999 | 0.805 ± 0.018 | 0.872 ± 0.02 | 0.882 ± 0.02 | 0.885 ± 0.02 | 0.889 ± 0.02

CCOC(=O)CC(C)=O [ethyl 3-oxobutanoate] + CCCCO
excess molar enthalpy [kJ/mol]
Details | 298.15 K | 313.15 K | 328.15 K | 338.15 K | 348.15 K
x1 = 0.1003 | 0.913 ± 0.02 | 1 ± 0.022 | 1.12 ± 0.025 | 1.14 ± 0.025 | 1.16 ± 0.026
x1 = 0.2002 | 1.41 ± 0.031 | 1.56 ± 0.034 | 1.81 ± 0.039 | 1.86 ± 0.04 | 1.9 ± 0.041
x1 = 0.3 | 1.71 ± 0.037 | 1.94 ± 0.042 | 2.25 ± 0.048 | 2.31 ± 0.049 | 2.35 ± 0.05
x1 = 0.3502 | 1.81 ± 0.039 | 2.07 ± 0.044 | 2.38 ± 0.051 | 2.45 ± 0.052 | 2.49 ± 0.053
x1 = 0.3999 | 1.88 ± 0.04 | 2.15 ± 0.046 | 2.47 ± 0.053 | 2.53 ± 0.054 | 2.58 ± 0.055
x1 = 0.45 | 1.92 ± 0.041 | 2.22 ± 0.048 | 2.51 ± 0.054 | 2.58 ± 0.055 | 2.61 ± 0.056
x1 = 0.5005 | 1.94 ± 0.041 | 2.22 ± 0.048 | 2.51 ± 0.054 | 2.56 ± 0.055 | 2.59 ± 0.055
x1 = 0.5501 | 1.92 ± 0.041 | 2.19 ± 0.047 | 2.47 ± 0.053 | 2.51 ± 0.053 | 2.53 ± 0.054
x1 = 0.5999 | 1.88 ± 0.04 | 2.12 ± 0.045 | 2.37 ± 0.051 | 2.42 ± 0.052 | 2.42 ± 0.052
x1 = 0.6499 | 1.8 ± 0.039 | 2.02 ± 0.043 | 2.25 ± 0.048 | 2.27 ± 0.049 | 2.27 ± 0.049
x1 = 0.7 | 1.69 ± 0.036 | 1.86 ± 0.04 | 2.06 ± 0.044 | 2.08 ± 0.045 | 2.08 ± 0.045
x1 = 0.8005 | 1.34 ± 0.029 | 1.42 ± 0.031 | 1.55 ± 0.034 | 1.55 ± 0.034 | 1.56 ± 0.034
x1 = 0.9007 | 0.767 ± 0.018 | 0.799 ± 0.018 | 0.841 ± 0.019 | 0.842 ± 0.019 | 0.847 ± 0.02
